Earlier results on one compound are cited in US12458027B2, “Glyphosate composition for dicamba tank mixtures with improved volatility” (Monsanto Technology LLC, priority 2013, dated 2025).

The conditions of this series: 25° C.

Turning to `O=C(O)CNCP(=O)(O)O` [Glyphosate acid, N-(phosphonomethyl)glycine], the solubility in water entry is “about 1.16 wt. %”.
